Experimental data as given in the supplement of paper PMC10307832.

How the values were obtained:
Assay in all cases: relative viability (nuclei count vs DMSO), 5 days (fraction); higher = more cells survive
[1] = compound: CC[C@@H](C)CNCC(=O)N1CCC2=C([C@@H]1COC3=CC=CC(=C3)C)C=CS2 [RU-SKI 43] + CCNC(=O)c1noc(-c2cc(C(C)C)c(O)cc2O)c1-c1ccc(CN2CCOCC2)cc1 [Luminespib] (partner 0.01 µM)
Procedure, shortened: (§1)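 A single step with final 0.05% Triton X-100, 1% formaldehyde and 1 ug/ml Hoechst fixed the cells and stained nuclei 5 days after treatment. Lung cancer cell lines in 1536-well plates had been treated by pin tool the day after seeding with one drug alone or a fixed anchor-drug dose plus five library-drug doses (not always all listed) in √10 steps, and nuclei were counted on 4× images. Relative viability is the ratio of nuclei in treated wells to nuclei in vehicle wells, taken as the median of duplicate plates.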

[2] = compound: CC[C@@H](C)CNCC(=O)N1CCC2=C([C@@H]1COC3=CC=CC(=C3)C)C=CS2 [RU-SKI 43] + Cc1nc(Nc2ncc(C(=O)Nc3c(C)cccc3Cl)s2)cc(N2CCN(CCO)CC2)n1 [Dasatinib] (partner 0.075 µM)
Procedure, shortened: as §1

[3] = compound: CCc1c2c(nc3ccc(OC(=O)N4CCC(N5CCCCC5)CC4)cc13)-c1cc3c(c(=O)n1C2)COC(=O)[C@]3(O)CC [Irinotecan] + COc1cccc2cc(-c3nc([C@H]4CC[C@H](C(=O)O)CC4)n4ncnc(N)c34)[nH]c12 [OSI-027] (partner 0.5 µM)
Procedure, shortened: as §1

[4] = compound: Cn1cc(-c2cnc3ccc4ccc(CS(=O)(=O)NCc5ccccn5)cc4c(=O)c3c2)cn1 [MK-8033] + O=C(CCCCCCC(=O)Nc1ccccc1)NO [Vorinostat] (partner 1 µM)
Procedure, shortened: as §1

Cell Line | relative viability ([1]; first compound 0.1 µM) | relative viability ([1]; first compound 0.3162 µM) | relative viability ([1]; first compound 1 µM) | relative viability ([1]; first compound 3.162 µM) | relative viability ([1]; first compound 10 µM) | relative viability ([2]; first compound 0.1 µM) | relative viability ([2]; first compound 0.3162 µM) | relative viability ([2]; first compound 1 µM) | relative viability ([2]; first compound 3.162 µM) | relative viability ([2]; first compound 10 µM) | relative viability ([3]; first compound 0.6325 µM) | relative viability ([3]; first compound 2 µM) | relative viability ([3]; first compound 6.325 µM) | relative viability ([3]; first compound 20 µM) | relative viability ([4]; first compound 0.02 µM) | relative viability ([4]; first compound 0.06325 µM) | relative viability ([4]; first compound 0.2 µM) | relative viability ([4]; first compound 0.6325 µM) | relative viability ([4]; first compound 2 µM)
RERF-LC-KJ | 1.25 | 1.01 | 1.44 | 1.3 | 1 | 0.788 | 0.938 | 0.992 | 0.771 | 0.704 | 0.364 | 0.492 | 0.534 | 0.112 | 0.726 | 0.599 | 0.664 | 0.707 | 0.597
SK-LU-1 | 0.225 | 0.215 | 0.202 | 0.227 | 0.215 | 0.163 | 0.172 | 0.172 | 0.194 | 0.159 | 0.302 | 0.301 | 0.293 | 0.238 | 0.829 | 0.897 | 0.704 | 0.778 | 0.685
SK-MES-1 | 0.761 | 0.854 | 0.818 | 0.929 | 0.75 | 0.336 | 0.358 | 0.357 | 0.342 | 0.388 | 0.428 | 0.538 | 0.434 | 0.15 | 1.2 | 0.987 | 1.03 | 1.04 | 1.03
SW 900 | 0.196 | 0.188 | 0.195 | 0.169 | 0.151 | 0.565 | 0.679 | 0.769 | 0.46 | 0.423 | 0.298 | 0.632 | 0.4 | 0.424 | 0.593 | 0.394 | 0.377 | 0.541 | 0.348
SW 1573 | 0.223 | 0.203 | 0.246 | 0.154 | 0.308 | 0.558 | 0.816 | 0.497 | 0.491 | 0.311 | 0.213 | 0.566 | 0.231 | 0.122 | 0.836 | 0.681 | 0.7 | 0.729 | 0.667
